Like-named read-outs stand apart in the source and are kept apart here.
Key:
human recombinant BACE2 = human recombinant BACE2 (Homo sapiens (Human), UniProt Q9Y5Z0); experiment: In vitro enzymatic BACE2 FRET assay; format: biochemical; details: read-out: BACE2 Enzyme IC50
Description: (§1) In Vitro Enzymatic BACE1 and BACE2 FRET (Fluorescence Resonance Energy Transfer) Assays […] These recombinant proteins were further purified using Ni-NTA affinity chromatography (Qiagen). […] The assay was effectively started by the addition of FRET substrate (50 nM) and the combination was incubated for one hour. The FRET assay was terminated by the addition of tris buffer, which raised the pH to neutrality, and the fluorescence was determined. The FRET substrate was a peptide with commercially available fluorophore and quencher, on opposite sides of the BACE cleavage site. The specific FRET substrate used in this assay was made by Amgen in-house. Commercially available FRET substrates, for example, the FRET substrate offered with the BACE1 FRET Assay Kit sold by ThermoFisher Scientific (Catalog Number P2985), may be used in this assay with the appropriate modifications, which are within the purview of the ability of a person with ordinary skill in the art. Proteolytic cleavage of the FRET substrate released quenching of fluorescence (excitation 488 nm and emission 590 nm).

Recombinant CatD = Recombinant CatD (Homo sapiens (Human), UniProt P07339); experiment: In vitro enzymatic Cathepsin D (CatD) FRET assay; format: biochemical; details: read-out: Cat D Enzyme IC50
Recombinant CatD, sequence (P07339 65-412): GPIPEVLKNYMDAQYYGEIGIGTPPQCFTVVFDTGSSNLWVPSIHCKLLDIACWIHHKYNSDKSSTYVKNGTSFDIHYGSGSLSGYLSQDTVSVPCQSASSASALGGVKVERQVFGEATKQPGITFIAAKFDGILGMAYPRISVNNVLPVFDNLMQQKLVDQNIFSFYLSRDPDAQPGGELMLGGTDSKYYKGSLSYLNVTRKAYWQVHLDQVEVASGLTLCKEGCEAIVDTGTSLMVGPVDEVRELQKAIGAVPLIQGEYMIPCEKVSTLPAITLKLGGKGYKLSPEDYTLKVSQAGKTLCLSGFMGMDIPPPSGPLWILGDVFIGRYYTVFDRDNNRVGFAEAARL
Description: In Vitro Enzymatic Cathepsin D (CatD) FRET Assay Recombinant CatD was expressed in CHO cells. The assay buffer for CatD was 0.05 M citrate pH 3.5, 10% DMSO final, 5 mM CHAPS. […] The assays was effectively started by the addition of different FRET substrates (20 nM for CatD) and the combination was incubated for one hour. The FRET assay was terminated with by addition of tris buffer, which raises the pH to neutrality, and the fluorescence was determined. The FRET substrate was a peptide with commercially available fluorophore and quencher, on opposite sides of the CatD cleavage site. The CatD substrate peptide sequence was based on sequence #1 of Table 1 from Gulnik et al., FEBS Lett. 413(2):379-384 (1997). Proteolytic cleavage of the FRET substrate released quenching of fluorescence (CatD excitation 500 nm and emission 580 nm). The in vitro CatD FRET assay data for each of the Examples is provided in Table 2, conducted by the first procedure described above. […] Thus, with this surprising selectivity profile, the compounds provided herein are believed to minimize, reduce or completely eliminate any risk of retinal atrophy and abnormal development of the eye and of the retinal pigmented epithelium as it relates to the normal function and activity of CatD.

human recombinant BACE1 = human recombinant BACE1 (Homo sapiens (Human), UniProt P56817); experiment: In vitro enzymatic BACE1 FRET assay; format: biochemical; details: read-out: BACE1 Enzyme IC50
human recombinant BACE1, sequence (P56817 46-501): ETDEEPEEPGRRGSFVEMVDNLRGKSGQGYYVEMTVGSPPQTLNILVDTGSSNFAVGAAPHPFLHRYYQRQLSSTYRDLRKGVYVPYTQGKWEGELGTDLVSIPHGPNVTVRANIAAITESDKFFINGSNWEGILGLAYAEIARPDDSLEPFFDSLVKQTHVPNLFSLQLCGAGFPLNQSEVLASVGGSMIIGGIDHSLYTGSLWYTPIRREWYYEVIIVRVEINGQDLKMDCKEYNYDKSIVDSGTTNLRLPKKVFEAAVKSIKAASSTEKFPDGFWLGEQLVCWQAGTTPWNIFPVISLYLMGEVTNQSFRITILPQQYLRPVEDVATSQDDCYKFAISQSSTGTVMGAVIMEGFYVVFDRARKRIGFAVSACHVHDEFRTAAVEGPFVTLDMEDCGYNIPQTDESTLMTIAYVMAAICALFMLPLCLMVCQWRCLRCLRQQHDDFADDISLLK
Description: as §1

[1] = test system: BACE1 (Aβ40 from cells stably expressing Amyloid Precursor Protein); experiment: In vitro BACE1 cell-based assay (Aβ40 in conditioned medium, HTRF)
Description: In Vitro BACE1 Cell-Based Assay The cell-based assay measures inhibition or reduction of Aβ40 in conditioned medium of test compound treated cells expressing amyloid precursor protein. Cells stably expressing Amyloid Precursor Protein (APP) were plated at a density of 45K cells/well in 384 well plates (Corning/BioCoat 354663). The test compounds were then added to cells in 22-point dose response concentrations with the starting concentration being 62.5 μM. The compounds were diluted from stock solutions in DMSO and the final DMSO concentration of the test compounds on cells was 0.625%. The cells were cultivated overnight at 37° C. and 5% CO2 in DMEM supplemented with 10% FBS. After 24 h of incubation with the test compounds, the conditioned media was collected and the Aβ40 levels were determined using HTRF (Homogeneous Time Resolved Fluorescence). […] The HTRF to detect Aβ40 was performed in 384 well plates (Costar 3658). The antibody pair that were used to detect Aβ 40 from cell supernatants were ConfAb40 antibody (Amgen in-house) and biotinylated 6E10 (BIOLEGEND). As an alternative to ConfAb40, a commercially available antibody, Anti-beta Amyloid 1-40 antibody [BDI350] from Abcam, Cambridge, Mass. 02139-1517 (Product code: ab20068), may be used in this assay. […] The conditioned media was incubated with above antibodies and Streptavidin Allophycocyanin Conjugate for 30-60 minutes at 23° C. The final readout was performed on Envision from PerkinElmer.

[2] = Aβ40, 24 h incubation, read-out: BACE1 Cell IC50
[3] = 24 h, read-out: BACE1 Cell IC50 (μM)

human recombinant BACE2, sequence (Q9Y5Z0 63-518): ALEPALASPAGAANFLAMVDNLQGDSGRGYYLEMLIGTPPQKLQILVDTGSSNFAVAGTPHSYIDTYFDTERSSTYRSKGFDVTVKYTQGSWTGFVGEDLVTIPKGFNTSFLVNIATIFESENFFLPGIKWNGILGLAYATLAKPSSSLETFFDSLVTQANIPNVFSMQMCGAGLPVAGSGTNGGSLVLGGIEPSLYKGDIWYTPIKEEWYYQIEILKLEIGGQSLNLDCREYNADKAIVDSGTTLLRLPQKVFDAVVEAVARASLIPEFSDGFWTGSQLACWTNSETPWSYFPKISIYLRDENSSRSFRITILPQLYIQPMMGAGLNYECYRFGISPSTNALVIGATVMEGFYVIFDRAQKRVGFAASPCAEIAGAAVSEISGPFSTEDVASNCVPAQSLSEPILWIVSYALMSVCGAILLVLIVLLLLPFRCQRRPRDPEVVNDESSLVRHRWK

IC50 (human recombinant BACE2) | IC50 (Recombinant CatD) | IC50 (human recombinant BACE1) | IC50 [1, 2] | SMILES | IC50 [1, 3]
1500 nM | > 400000 nM | 15.8 nM | 0.117 µM | NC1=N[C@@]2(c3cc(/C=C(\F)c4ccc(C(F)(F)F)cn4)ccc3F)CO[C@H](C(F)(F)F)[C@H]2CS1 [Example 139, (4aS,5S,7aS)-7a-(2-fluoro-5-((Z)-2-fluoro-2-(5-(trifluoromethyl)pyridin-2-yl)vinyl)phenyl)-5-(trifluoromethyl)-4a,5,7,7a-tetrahydro-4H-furo[3,4-d][1,3]thiazin-2-amine] | 
427 nM | > 400000 nM | 3.83 nM | 0.0115 µM | N#Cc1ccc(/C(F)=C/c2ccc(F)c([C@]34CO[C@H](CF)[C@H]3CSC(N)=N4)c2)nc1 [Example 131, 6-((Z)-2-(3-((4aS,5S,7aS)-2-amino-5-(fluoromethyl)-4a,5,7,7a-tetrahydro-4H-furo[3,4-d][1,3]thiazin-7a-yl)-4-fluorophenyl)-1-fluorovinyl)nicotinonitrile] | 
353 nM | 87900 nM | 2.36 nM | 0.0086 µM | C#CCOc1cnc(/C(F)=C/c2ccc(F)c([C@]34CN(C(=O)CC)C[C@H]3CSC(N)=N4)c2)cn1 [Example 122, 1-((4aR,7aS)-2-amino-7a-(2-fluoro-5-((Z)-2-fluoro-2-(5-(prop-2-yn-1-yloxy)pyrazin-2-yl)vinyl)phenyl)-4a,5,7,7a-tetrahydropyrrolo[3,4-d][1,3]thiazin-6(4H)-yl)propan-1-one] | 
22.3 nM | 106000 nM | 4.3 nM | 0.0018 µM | N#Cc1ccc(/C(F)=C/c2ccc(F)c([C@]34CN(c5ncccn5)C[C@H]3CSC(N)=N4)c2)nc1 [Example 135, 6-((Z)-2-(3-((4aR,7aS)-2-amino-6-(pyrimidin-2-yl)-4,4a,5,6,7,7a-hexahydropyrrolo[3,4-d][1,3]thiazin-7a-yl)-4-fluorophenyl)-1-fluorovinyl)nicotinonitrile] | 
18000 nM | 30600 nM | 2540 nM | 1.39 µM | N#Cc1ccc(/C(F)=C/c2ccc(F)c([C@@]34CO[C@@H](C(F)(F)F)[C@@H]3CSC(N)=N4)c2)nc1 [Example 125, 6-((Z)-2-(3-((4aR,5R,7aR)-2-amino-5-(trifluoromethyl)-4a,5,7,7a-tetrahydro-4H-furo[3,4-d][1,3]thiazin-7a-yl)-4-fluorophenyl)-1-fluorovinyl)nicotinonitrile] | 
4.3 nM | 59300 nM | 1.4 nM | 0.0009 µM | COc1nc(N2C[C@H]3CSC(N)=N[C@@]3(c3cc(/C=C(\F)c4ccc(C#N)cn4)ccc3F)C2)ncc1F [Example 134, 6-((Z)-2-(3-((4aR,7aS)-2-amino-6-(5-fluoro-4-methoxypyrimidin-2-yl)-4,4a,5,6,7,7a-hexahydropyrrolo[3,4-d][1,3]thiazin-7a-yl)-4-fluorophenyl)-1-fluorovinyl)nicotinonitrile] | 
220 nM | 333000 nM | 8.7 nM | 0.0482 µM | N#Cc1cnc(/C(F)=C/c2ccc(F)c([C@]34CO[C@H](C(F)(F)F)[C@H]3CSC(N)=N4)c2)c(Cl)c1 [Example 140, 6-((Z)-2-(3-((4aS,5S,7aS)-2-amino-5-(trifluoromethyl)-4a,5,7,7a-tetrahydro-4H-furo[3,4-d][1,3]thiazin-7a-yl)-4-fluorophenyl)-1-fluorovinyl)-5-chloronicotinonitrile] | 

The next lines start with the compound.

SMILES | IC50 (human recombinant BACE2) | IC50 (Recombinant CatD) | IC50 (human recombinant BACE1) | IC50 [1, 2] | IC50 [1, 3]
N#Cc1ccc(/C(F)=C/c2ccc(F)c([C@]34COC[C@H]3CSC(N)=N4)c2)nc1 [Example 107, 6-((Z)-2-(3-((4aS,7aS)-2-amino-4a,5,7,7a-tetrahydro-4H-furo[3,4-d][1,3]thiazin-7a-yl)-4-fluorophenyl)-1-fluorovinyl)nicotinonitrile] | 279 nM | > 400000 nM | 11.7 nM | 0.041 µM | 
C#CCOc1cnc(/C(F)=C/c2ccc(F)c([C@]34CN(C(=O)OCC)C[C@H]3CSC(N)=N4)c2)cn1 [Example 123, (4aR,7aS)-ethyl 2-amino-7a-(2-fluoro-5-((Z)-2-fluoro-2-(5-(prop-2-yn-1-yloxy)pyrazin-2-yl)vinyl)phenyl)-4a,5,7,7a-tetrahydropyrrolo[3,4-d][1,3]thiazine-6(4H)-carboxylate] | 214 nM | 36500 nM | 4.5 nM |  | 0.00478 µM
C#CCOc1cnc(/C(F)=C/c2ccc(F)c([C@]34CN(C(=O)OC(C)(C)C)C[C@H]3CSC(N)=N4)c2)cn1 [Example 116, (4aR,7aS)-tert-butyl 2-amino-7a-(2-fluoro-5-((Z)-2-fluoro-2-(5-(prop-2-yn-1-yloxy)pyrazin-2-yl)vinyl)phenyl)-4a,5,7,7a-tetrahydropyrrolo[3,4-d][1,3]thiazine-6(4H)-carboxylate] | 52 nM | 28600 nM | 2.53 nM |  | 0.00188 µM
C#CCOc1cnc(/C(F)=C/c2ccc(F)c([C@]34CN(C(=O)OC)C[C@H]3CSC(N)=N4)c2)cn1 [Example 121, (4aR,7aS)-methyl 2-amino-7a-(2-fluoro-5-((Z)-2-fluoro-2-(5-(prop-2-yn-1-yloxy)pyrazin-2-yl)vinyl)phenyl)-4a,5,7,7a-tetrahydropyrrolo[3,4-d][1,3]thiazine-6(4H)-carboxylate] | 258 nM | 47900 nM | 1.59 nM |  | 0.00679 µM
NC1=N[C@@]2(c3cc(/C=C(\F)c4cnc(OCC(F)F)cn4)ccc3F)CN(c3ncc(F)cn3)C[C@H]2CS1 [Example 113, (4aR,7aS)-7a-(5-((Z)-2-(5-(2,2-difluoroethoxy)pyrazin-2-yl)-2-fluorovinyl)-2-fluorophenyl)-6-(5-fluoropyrimidin-2-yl)-4,4a,5,6,7,7a-hexahydropyrrolo[3,4-d][1,3]thiazin-2-amine] | 38.1 nM | 26600 nM | 22.6 nM | 0.00935 µM | 
NC1=N[C@@]2(c3cc(/C=C(\F)c4ccc(Cl)cn4)ccc3F)CN(c3ncc(F)cn3)C[C@H]2CS1 [Example 101, (4aR,7aS)-7a-(5-((Z)-2-(5-chloropyridin-2-yl)-2-fluorovinyl)-2-fluorophenyl)-6-(5-fluoropyrimidin-2-yl)-4,4a,5,6,7,7a-hexahydropyrrolo[3,4-d][1,3]thiazin-2-amine] | 1.03 nM | 49100 nM | 1.84 nM | 0.00194 µM | 
NC1=N[C@]2(c3cc(/C=C(\F)c4ccc(Cl)cn4)ccc3F)COC[C@@H]2CS1 [Example 104, (4aR,7aR)-7a-(5-((Z)-2-(5-chloropyridin-2-yl)-2-fluorovinyl)-2-fluorophenyl)-4a,5,7,7a-tetrahydro-4H-furo[3,4-d][1,3]thiazin-2-amine] | 7480 nM | 654000 nM | 804 nM | 2.26 µM | 

Source: patent publication US11548903B2, “Bicyclic thiazine and oxazine derivatives as beta-secretase inhibitors and methods of use” (AMGEN INC., priority 2016, dated 2023)
